Test results published in ChEMBL document CHEMBL3425507, “Separation and peroxisome proliferator-activated receptor-γ agonist activity evaluation of synthetic racemic bavachinin enantiomers” (Bioorg Med Chem Lett, 2015).

Columns and labels:
[1] = Retention time of the compound by supercritical fluid chromatography; assay type: ADME
[2] = target: T1, Peroxisome proliferator-activated receptor gamma (Homo sapiens, UniProt P37231); test: Agonist activity at PPARgamma ligand binding domain (unknown origin) using fluormone Pan-PPAR green tracer by TR-FRET assay based competitive ligand binding method
T1 sequence (P37231 whole entry): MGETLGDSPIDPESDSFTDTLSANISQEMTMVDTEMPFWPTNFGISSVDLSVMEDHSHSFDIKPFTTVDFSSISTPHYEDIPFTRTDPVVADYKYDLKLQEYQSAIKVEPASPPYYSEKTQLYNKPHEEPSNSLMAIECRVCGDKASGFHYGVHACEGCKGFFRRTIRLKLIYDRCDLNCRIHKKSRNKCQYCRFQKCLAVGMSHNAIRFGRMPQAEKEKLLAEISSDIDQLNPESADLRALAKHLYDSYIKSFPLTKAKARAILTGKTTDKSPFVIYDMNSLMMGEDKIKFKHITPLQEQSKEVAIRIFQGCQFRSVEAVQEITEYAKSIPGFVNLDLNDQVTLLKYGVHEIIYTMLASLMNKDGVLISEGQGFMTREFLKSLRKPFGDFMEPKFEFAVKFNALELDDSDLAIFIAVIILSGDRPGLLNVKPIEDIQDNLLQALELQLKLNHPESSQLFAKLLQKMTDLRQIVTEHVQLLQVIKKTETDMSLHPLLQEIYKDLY

COc1cc2c(cc1CC=C(C)C)C(=O)C[C@H](c1ccc(O)cc1)O2
Retention_time [1]: 4.99 min | IC50 [2]: 471 nM | Ki [2]: 169 nM

COc1cc2c(cc1CC=C(C)C)C(=O)C[C@@H](c1ccc(O)cc1)O2 [BAVACHININ A]
Retention_time [1]: 4.4 min | IC50 [2]: 617 nM | Ki [2]: 221 nM

COc1cc2oc(-c3ccc(O)cc3)cc(=O)c2cc1CC=C(C)C [BAVACHININ]
IC50 [2]: 489 nM | Ki [2]: 176 nM
